Molecular target: human wild type-CFTR (Homo sapiens, UniProt P13569)
Assay: Cell-based YFP assay
Set-up: expressed in transfected cells; host or cells: CHO-K1 (Chinese hamster ovary)
Details: CHO-K1 cells expressing human wild type-CFTR and YFP-H148Q/I152L; forskolin 20 μM = 100% activity; read-out: Cell-based YFP Assay (EC50) Concentration Range
How it was run: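 CHO-K1 cells co-expressing human wild-type CFTR and YFP-H148Q/I152L halide sensor, grown 48 h at 37 °C, then in PBS. YFP quenching by I⁻ influx read at 37 °C after adding 140 mM I⁻ solution, sampled every 0.4 s for 14 s. Triplicates averaged; EC50 fitted.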

Chain of human wild type-CFTR (P13569 whole entry): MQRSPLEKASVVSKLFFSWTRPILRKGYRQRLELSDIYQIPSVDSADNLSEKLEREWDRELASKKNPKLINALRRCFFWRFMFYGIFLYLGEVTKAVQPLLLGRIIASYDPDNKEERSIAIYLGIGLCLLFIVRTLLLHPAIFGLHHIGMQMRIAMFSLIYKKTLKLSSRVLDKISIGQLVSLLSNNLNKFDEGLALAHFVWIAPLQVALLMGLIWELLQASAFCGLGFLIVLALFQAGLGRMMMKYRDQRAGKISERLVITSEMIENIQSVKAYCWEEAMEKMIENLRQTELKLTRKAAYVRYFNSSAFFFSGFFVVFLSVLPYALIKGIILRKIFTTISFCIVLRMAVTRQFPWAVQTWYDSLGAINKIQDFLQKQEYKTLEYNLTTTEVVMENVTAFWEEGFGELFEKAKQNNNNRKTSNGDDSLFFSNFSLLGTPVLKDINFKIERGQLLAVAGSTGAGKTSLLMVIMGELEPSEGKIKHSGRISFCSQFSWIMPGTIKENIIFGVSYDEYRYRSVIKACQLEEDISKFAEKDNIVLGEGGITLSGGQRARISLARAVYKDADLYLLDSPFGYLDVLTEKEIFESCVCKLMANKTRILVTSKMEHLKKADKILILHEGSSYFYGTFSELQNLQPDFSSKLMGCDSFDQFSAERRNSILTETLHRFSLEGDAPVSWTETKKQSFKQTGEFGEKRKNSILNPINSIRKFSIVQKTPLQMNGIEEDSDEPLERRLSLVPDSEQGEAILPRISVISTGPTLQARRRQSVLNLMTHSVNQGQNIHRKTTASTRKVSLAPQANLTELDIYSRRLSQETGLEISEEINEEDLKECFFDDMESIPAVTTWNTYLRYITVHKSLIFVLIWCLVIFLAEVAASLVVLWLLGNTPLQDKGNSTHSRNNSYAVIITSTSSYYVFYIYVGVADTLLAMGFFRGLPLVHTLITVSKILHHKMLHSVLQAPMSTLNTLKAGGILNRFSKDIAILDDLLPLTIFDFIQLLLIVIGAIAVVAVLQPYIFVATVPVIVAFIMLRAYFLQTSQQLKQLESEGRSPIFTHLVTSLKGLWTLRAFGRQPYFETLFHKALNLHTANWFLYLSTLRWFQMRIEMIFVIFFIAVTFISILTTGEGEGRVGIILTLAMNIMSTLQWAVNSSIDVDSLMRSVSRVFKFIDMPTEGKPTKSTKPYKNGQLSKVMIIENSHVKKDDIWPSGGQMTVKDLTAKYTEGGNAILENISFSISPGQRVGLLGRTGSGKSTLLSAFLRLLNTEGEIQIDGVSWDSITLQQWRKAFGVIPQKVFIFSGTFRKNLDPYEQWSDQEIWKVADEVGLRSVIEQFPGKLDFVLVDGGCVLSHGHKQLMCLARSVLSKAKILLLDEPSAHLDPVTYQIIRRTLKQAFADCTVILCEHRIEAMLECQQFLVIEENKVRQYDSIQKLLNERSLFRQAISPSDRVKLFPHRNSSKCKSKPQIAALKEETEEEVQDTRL

Compound	EC50
CCN(CC)CCNC(=O)c1ccc(NC(=O)c2cc3nccc(-c4ccc(OC)c(OC)c4)n3n2)cc1 [Compound 221, N-(4-((2-(diethylamino)ethyl)carbamoyl)phenyl)-7-(3,4-dimethoxyphenyl)pyrazolo [1,5-a]pyrimidine-2-carboxamide]	≥ 2000 nM
COc1ccc(-c2ccnc3cc(C(=O)Nc4ccc(OC(=O)CNC(=O)OC(C)(C)C)cc4)nn23)cc1OC [Compound 227, 4-(7-(3,4-dimethoxyphenyl)pyrazolo[1,5-a]pyrimidine-2-carboxamido) phenyl(tert-butoxycarbonyl)glycinate]	< 200 nM
COc1ccc(-c2ccnc3cc(C(=O)N(C)c4ccc(C(=O)O)cc4)nn23)cc1OC [Compound 234, 4-(7-(3,4-dimethoxyphenyl)-N-methylpyrazolo[1,5-a]pyrimidine-2-carboxamido)benzoic acid]	≥ 2000 nM
CCCCOc1ccc(NC(=O)c2cc3nccc(-c4ccc(OC)c(OC)c4)n3n2)cc1 [Compound 229, N-(4-butoxyphenyl)-7-(3,4-dimethoxyphenyl)pyrazolo [1,5-a]pyrimidine-2-carboxamide]	< 200 nM
CCOc1ccc(NC(=O)c2cc3nccc(-c4cccc(C)c4)n3n2)cc1 [Compound 301, N-(4-ethoxyphenyl)-7-(m-tolyl)pyrazolo[1,5-a] pyrimidine-2-carboxamide]	≥ 2000 nM
CCOc1ccc(NC(=O)c2cc3nccc(-c4ccc5c(c4)CCO5)n3n2)cc1 [Compound 313, 7-(2,3-dihydrobenzofuran-5-yl)-N-(4-ethoxyphenyl)pyrazolo [1,5-a]pyrimidine-2-carboxamide]	≥ 2000 nM
COc1ccc(-c2ccnc3cc(C(=O)N4CC[C@H](O)C4)nn23)cc1OC [Compound 148, (S)-(7-(3,4-dimethoxyphenyl)pyrazolo[1,5-a]pyrimidin-2-yl)(3-hydroxypyrrolidin-1-yl)methanone]	≥ 2000 nM
CCOc1ccc(NC(=O)c2cc3nccc(-c4ccc(OC)c([N+](=O)[O-])c4)n3n2)cc1 [Compound 295, N-(4-ethoxyphenyl)-7-(4-methoxy-3-nitrophenyl)pyrazolo [1,5-a]pyrimidine-2-carboxamide]	≥ 2000 nM
COc1ccc(-c2ccnc3cc(C(=O)N[C@H]4CC[C@H](N5CCOCC5)CC4)nn23)cc1OC [Compound 345, 7-(3,4-dimethoxyphenyl)-N-((1R,4R)-4-morpholinocyclohexyl) pyrazolo[1,5-a]pyrimidine-2-carboxamide]	≥ 2000 nM
COc1ccc(-c2ccnc3cc(C(=O)Nc4ccc(C(=O)N5CCN(C)CC5)c(C)c4)nn23)cc1OC [Compound 215, 7-(3,4-dimethoxyphenyl)-N-(3-methyl-4-(4-methylpiperazine-1-carbonyl)phenyl)pyrazolo [1,5-a]pyrimidine-2-carboxamide]	≥ 2000 nM
CCOc1ccc(NC(=O)c2cc3nccc(-c4cc(OC)c(OC)cc4C)n3n2)cc1 [Compound 339, 7-(4,5-dimethoxy-2-methylphenyl)-N-(4-ethoxyphenyl)pyrazolo [1,5-a]pyrimidine-2-carboxamide]	≥ 2000 nM
COc1ccc(-c2ccnc3cc(C(=O)Nc4ccc(C(=O)N[C@@H](CC(=O)O)C(=O)O)cc4)nn23)cc1OC [Compound 88, (4-(7-(3,4-dimethoxyphenyl)pyrazolo[1,5-a]pyrimidine-2-carboxamido)benzoyl)-L-aspartic acid]	≥ 2000 nM
COc1ccc(-c2ccnc3cc(C(=O)N[C@H]4CC[C@H](C(=O)NCCN5CCOCC5)CC4)nn23)cc1OC [Compound 202, 7-(3,4-dimethoxyphenyl)-N-((1r,4r)-4-((2-morpholinoethyl)carbamoyl)cyclohexyl)pyrazolo [1,5-a]pyrimidine-2-carboxamide]	≥ 2000 nM
COc1ccc(-c2ccnc3cc(C(=O)Nc4ccc(N5CCOCC5)cn4)nn23)cc1[N+](=O)[O-] [Compound 294, 7-(4-methoxy-3-nitrophenyl)-N-(5-morpholinopyridin-2-yl) pyrazolo[1,5-a] pyrimidine-2-carboxamide]	≥ 2000 nM
COc1ccc(-c2ccnc3cc(C(=O)NN4CCOCC4)nn23)cc1OC [Compound 99, 7-(3,4-dimethoxyphenyl)-N-morpholinopyrazolo[1,5-a] pyrimidine-2-carboxamide]	≥ 2000 nM
COc1ccc(-c2ccnc3cc(C(=O)NC4CCN(C[C@@H](O)CO)CC4)nn23)cc1OC [Compound 103, (R)-N-(1-(2,3-dihydroxypropyl)piperidin-4-yl)-7-(3,4-dimethoxyphenyl) pyrazolo[1,5-a]pyrimidine-2-carboxamide]	≥ 2000 nM
COc1ccc(-c2ccnc3cc(C(=O)N[C@H]4CC[C@H](C(=O)N5CCC(N6CCCCC6)CC5)CC4)nn23)cc1OC [Compound 343, N-((1R,4R)-4-([1,4′-bipiperidine]-1′-carbonyl)cyclohexyl)-7-(3,4-dimethoxyphenyl)pyrazolo [1,5-a]pyrimidine-2-carboxamide]	≥ 2000 nM

Next, values leading:

EC50	Compound
≥ 2000 nM	COc1ccc(-c2ccnc3cc(C(=O)N4CCN(C)CC4)nn23)cc1OC [Compound 101, (7-(3,4-dimethoxyphenyl)pyrazolo[1,5-a]pyrimidin-2-yl)(4-methylpiperazin-1-yl)methanone]
200 to 2000 nM	COc1ccc(-c2ccnc3cc(C(=O)N4CC[C@@H](NC(=O)OC(C)(C)C)C4)nn23)cc1OC [Compound 115, tert-butyl (R)-(1-(7-(3,4-dimethoxyphenyl)pyrazolo [1,5-a]pyrimidine-2-carbonyl)pyrrolidin-3-yl)carbamate]
200 to 2000 nM	COc1ccc(-c2ccnc3cc(C(=O)N[C@H]4CC[C@@H](C(=O)OCc5ccccn5)CC4)nn23)cc1OC [Compound 247, pyridin-2-ylmethyl (1S,4S)-4-(7-(3,4-dimethoxyphenyl)pyrazolo [1,5-a]pyrimidine-2-carboxamido)cyclohexane-1-carboxylate]
200 to 2000 nM	COc1ccc(-c2ccnc3cc(C(=O)Nc4ccc(OC)c(F)c4F)nn23)cc1OC [Compound 326, N-(2,3-difluoro-4-methoxyphenyl)-7-(3,4-dimethoxyphenyl)pyrazolo [1,5-a]pyrimidine-2-carboxamide]
< 200 nM	COc1ccc(-c2ccnc3cc(C(=O)Nc4ccc(C(=O)OCCN5CCOCC5)cn4)nn23)cc1OC [Compound 242, 2-morpholinoethyl 6-(7-(3,4-dimethoxyphenyl)pyrazolo [1,5-a]pyrimidine-2-carboxamido)nicotinate]
200 to 2000 nM	COc1ccc(-c2ccnc3cc(C(=O)Nc4ccc(OC(C)C)cc4)nn23)cc1OC [Compound 290, 7-(3,4-dimethoxyphenyl)-N-(4-isopropoxyphenyl)pyrazolo [1,5-a]pyrimidine-2-carboxamide]
200 to 2000 nM	COCCOCOC(=O)[C@H]1CC[C@H](NC(=O)c2cc3nccc(-c4ccc(OC)c(OC)c4)n3n2)CC1 [Compound 328, (2-methoxyethoxy)methyl (1R,4R)-4-(7-(3,4-dimethoxyphenyl)pyrazolo [1,5-a]pyrimidine-2-carboxamido)cyclohexane-1-carboxylate]
< 200 nM	COc1ccc(-c2ccnc3cc(C(=O)Nc4ccc(O)cn4)nn23)cc1OC [Compound 327, 7-(3,4-dimethoxyphenyl)-N-(5-hydroxypyridin-2-yl)pyrazolo[1,5-a] pyrimidine-2-carboxamide]
200 to 2000 nM	COc1ccc(-c2ccnc3cc(C(=O)N4CCN(Cc5ccccc5)CC4)nn23)cc1OC [Compound 154, (4-benzylpiperazin-1-yl) (7-(3,4-dimethoxyphenyl)pyrazolo [1,5-a]pyrimidin-2-yl)methanone]
< 200 nM	CCCOC(=O)c1ccc(NC(=O)c2cc3nccc(-c4ccc(OC)c(OC)c4)n3n2)cc1 [Compound 335, propyl 4-(7-(3,4-dimethoxyphenyl)pyrazolo [1,5-a]pyrimidine-2-carboxamido)benzoate]
200 to 2000 nM	COc1ccc(-c2ccnc3cc(C(=O)N4CCN[C@@H](C5CC5)C4)nn23)cc1OC [Compound 374, (S)-(3-cyclopropylpiperazin-1-yl)(7-(3,4-dimethoxyphenyl)pyrazolo [1,5-a]pyrimidin-2-yl)methanone]
200 to 2000 nM	COc1ccc(-c2ccnc3cc(C(=O)N4CCN(c5ncccn5)CC4)nn23)cc1OC [Compound 185, (7-(3,4-dimethoxyphenyl)pyrazolo[1,5-a]pyrimidin-2-yl)(4-(pyrimidin-2-yl)piperazin-1-yl)methanone]
< 200 nM	CCOC(=O)c1ccc(NC(=O)c2cc3nccc(-c4ccc(OC)c(OC)c4)n3n2)cc1 [Compound 334, ethyl 4-(7-(3,4-dimethoxyphenyl)pyrazolo[1,5-a]pyrimidine-2-carboxamido)benzoate]
200 to 2000 nM	COc1ccc(-c2ccnc3cc(C(=O)N4CCN(C(=O)c5ccc(Cl)cc5)[C@@H](C)C4)nn23)cc1OC [Compound 262, (S)-(4-(4-chlorobenzoyl)-3-methylpiperazin-1-yl) (7-(3,4-dimethoxyphenyl)pyrazolo[1,5-a]pyrimidin-2-yl)methanone]
200 to 2000 nM	COc1ccc(-c2ccnc3cc(C(=O)N4CCNC5(CC5)C4)nn23)cc1OC [Compound 361, (7-(3,4-dimethoxyphenyl)pyrazolo[1,5-a]pyrimidin-2-yl)(4,7-diazaspiro[2.5]octan-7-yl)methanone]
< 200 nM	COc1ccc(-c2ccnc3cc(C(=O)N4C[C@H](C)N(C(=O)c5ccccc5)C[C@H]4C)nn23)cc1OC [Compound 365, ((2R,5S)-4-benzoyl-2,5-dimethylpiperazin-1-yl)(7-(3,4-dimethoxyphenyl)pyrazolo[1,5-a]pyrimidin-2-yl)methanone]
< 200 nM	COCCOCOc1ccc(NC(=O)c2cc3nccc(-c4ccc(OC)c(OC)c4)n3n2)cc1 [Compound 346, 7-(3,4-dimethoxyphenyl)-N-(4-((2-methoxyethoxy)methoxy)phenyl)pyrazolo[1,5-a]pyrimidine-2-carboxamide]
